Test results reported in patent US5547960A (Mayo Foundation for Medical Education and Research, priority 1994, dated 1996).
Read-outs that look alike come from different tables or passages of the source.

Assays:
[1] = test system: AChE; details: relative to (±)-huperzine A; U.S. Pat. No. 4,929,731; cited from earlier work
[2] = test system: myasthenia gravis; details: 128 patients suffering from myasthenia gravis; Y. S. Cheng, 1986; cited from earlier work
[3] = test system: mice; details: G. P. Vincent et al., 1987; cited from earlier work
[4] = test system: squirrel monkeys; details: G. P. Vincent et al., 1987; cited from earlier work
[5] = molecular target: T1, FBS AChE (Bos taurus, UniProt P23795); assay: Inhibition of AChE (dissociation constant Ki, procedure of Y. Ashani et al.); assay type: biochemical
T1 construct: FBS AChE; from tissue; host or cells: fetal bovine serum (FBS read as this abbreviation)
T1 sequence (P23795 31-613): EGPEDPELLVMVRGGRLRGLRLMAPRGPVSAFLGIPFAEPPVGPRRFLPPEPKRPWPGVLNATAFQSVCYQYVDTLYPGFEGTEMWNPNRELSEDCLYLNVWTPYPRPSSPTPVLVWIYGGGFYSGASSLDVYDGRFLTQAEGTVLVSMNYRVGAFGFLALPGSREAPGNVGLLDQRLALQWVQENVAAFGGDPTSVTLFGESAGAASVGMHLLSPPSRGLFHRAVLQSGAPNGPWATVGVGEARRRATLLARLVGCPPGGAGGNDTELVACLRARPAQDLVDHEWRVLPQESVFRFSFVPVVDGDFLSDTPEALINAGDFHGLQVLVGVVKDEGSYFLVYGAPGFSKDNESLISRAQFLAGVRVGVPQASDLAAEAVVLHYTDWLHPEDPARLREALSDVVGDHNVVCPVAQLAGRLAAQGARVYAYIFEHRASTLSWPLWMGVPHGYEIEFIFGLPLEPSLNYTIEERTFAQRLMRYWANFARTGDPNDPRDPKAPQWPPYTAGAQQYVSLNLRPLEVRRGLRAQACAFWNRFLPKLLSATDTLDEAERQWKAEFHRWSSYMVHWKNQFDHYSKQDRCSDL
Text: *Dissociation constant (Ki) for inhibition of AChE determined

[6] = test system: acetylcholinesterase (ACHE); details: cited from earlier work
[7] = test system: Alzheimer's disease; details: K. L. Davis, NIA meeting, Jan. 8-10, 1990; cited from earlier work
[8] = test system: AChE; details: 0.65 mg/kg i.m., cited from earlier work
[9] = procedure of Y. Ashani et al., Molecular Pharmacol., 45, 555 (1994), read-out: FBS AChE Ki, dissociation constant for inhibition of AChE

**Q.** With `CC=C1C2C=C(C)CC1(CN)c1ccc(=O)[nH]c1C2` (stereo not shown) as the compound, how does the “times less potent than (±)-huperzine A as an inhibitor of AChE” value [1] read?
**A.** about 166 times

**Q.** For `CC=C1C2C=C(C)CC1(N)c1ccc(=O)[nH]c1C2` (single isomer, unassigned) [huperzine A], which “cases in which clinical manifestations of myasthenia gravis are controlled” value [2] is on record?
**A.** 99%

**Q.** And the “cognition enhancement in mice” value [3]?
**A.** effective cognition enhancer

**Q.** What about the “cognition enhancement in squirrel monkeys” value [4] of the same compound?
**A.** effective cognition enhancer

**Q.** For `C=CCC1c2[nH]c(=O)ccc2C2(N)CC(C)=CC1/C2=C\C` (stereo not shown) [Compound 8a, (11E)-10-Allyl-5-amino-11-ethylidene-5,6,9,10-tetrahydro-7-methyl-5,9-methanocycloocta[b]pyridin-5(1H)-one], which Ki [5, 9] is on record?
**A.** 275 µM

**Q.** Which Ki [5, 9] does the source give for `C/C=C1\C2C=C(C)CC1(N)c1ccc(=O)[nH]c1C2C` (stereo not shown) [Compound 8b, (11E)-5-Amino-11-ethylidene-5,6,9,10-tetrahydro-7,10-dimethyl-5,9-methanocycloocta[b]pyridin-2(1H)-one] here?
**A.** 0.008 ± 0.002 µM

**Q.** With `C/C=C1\C2C=C(C)CC1(N)c1ccc(=O)[nH]c1C2CC` (stereo not shown) [Compound 8c, (11E)-5-Amino-10-ethyl-11-ethylidene-5,6,9,10-tetrahydro-7-methyl-5,9-methanocycloocta[b]pyridin-2(1H)-one] as the compound, how does the Ki [5] read?
**A.** 2.04 µM

**Q.** With `C/C=C1\C2C=C(C)CC1(N)c1ccc(=O)[nH]c1C2CCC` (stereo not shown) [Compound 8d, (11E)-5-Amino-11-ethylidene-5,6,9,10-tetrahydro-7-methyl-10-propyl-5,9-methanocycloocta[b]pyridin-2(1H)-one] as the compound, how does the Ki [5, 9] read?
**A.** 207 µM

**Q.** For `C/C=C1\C2C=C(C)CC1(N)c1ccc(=O)[nH]c1C2CCCC` (stereo not shown) [Compound 8e, (11E)-5-Amino-10-butyl-11-ethylidene-5,6,9,10-tetrahydro-7-methyl-5,9-methanocycloocta[b]pyridin-2(1H)-one], which Ki [5, 9] is on record?
**A.** 192 µM

**Q.** With `CC1=CC2Cc3[nH]c(=O)ccc3C3(C1)NCCCC23` (stereo not shown) [huperzine B] as the compound, how does the “usefulness as ACHE inhibitors relative to THA and physostigmine” value [6] read?
**A.** appear superior to THA and physostigmine

**Q.** Which cognitive improvement [7] does the source give for `CNC(=O)Oc1ccc2c(c1)[C@]1(C)CCN(C)[C@@H]1N2C` [physostigmine] here?
**A.** modest cognitive improvement

**Q.** What about the “maximal duration of AChE inhibitory action” value ([8]; X. C. Tang et al., 1989) of the same compound?
**A.** ≤ 60 min

**Q.** What about the side effects [8] of the same compound?
**A.** considerable side effects
